{"source": "paper doi:10.1101/2024.08.25.609621", "about": "(bioRxiv, 2024)", "key": {"[1]": {"target": "SARS-CoV-2 NSP3 macrodomain (Mac1) (Severe acute respiratory syndrome coronavirus 2, UniProt P0DTD1)", "assay": "biochemical", "type": "binding"}, "[2]": {"target": "SARS-CoV-2 NSP3 macrodomain (Mac1), P43 crystal form (Severe acute respiratory syndrome coronavirus 2, UniProt P0DTD1)", "type": "binding"}, "[3]": {"conditions": "dose-response, read-out: SARS CoV-2 macrodomain HTRF assay: IC50"}, "[4]": {"conditions": "dose-response, read-out: SARS CoV-2 macrodomain HTRF assay: Ki"}, "[5]": {"conditions": "from SARS CoV-2 macrodomain HTRF assay"}, "[6]": {"conditions": "ligand modeling in Mac1 crystal structure"}, "[7]": {"conditions": "stereoisomer(s) modeled in Mac1 crystal structure"}, "[8]": {"conditions": "Single dose, 200 μM, mean of three technical replicates, read-out: Average % competition"}, "[9]": {"conditions": "preliminary screen, compound at 200 μM, mean of 3-4 technical replicates, read-out: % competition in HTRF assay"}, "[10]": {"conditions": "ligand modeling in Mac1 crystal soak"}, "[11]": {"conditions": "SARS CoV-2 macrodomain HTRF assay"}, "[12]": {"conditions": "SARS CoV-2 macrodomain HTRF assay, read-out: Ki"}, "[13]": {"conditions": "stereoisomer(s) of ligand modeled in Mac1 crystal structure"}, "[14]": {"conditions": "Dose-response, SARS CoV-2 macrodomain HTRF assay, read-out: IC50"}}, "note": "Where two headings read alike, the source gives them in different places."}
{"smiles": "C[C@H]1CC[C@H](CO)N(c2ncnc3[nH]ccc23)C1", "note": "(racemic) [AVI-4063]", "values": [{"measurement": "IC50", "setting": "[1]; [3]", "result": 56, "unit": "µM"}, {"measurement": "Ki", "setting": "[1]; [4]", "result": 52, "unit": "µM"}, {"measurement": "Ligand efficiency (binding enery per heavy atom)", "setting": "[1]; [5]", "result": 0.33}, {"measurement": "Number of isomers bound", "setting": "[2]; [6]", "result": 1}]}
{"smiles": "C[C@@H]1CCN(c2ncnc3[nH]ccc23)[C@H](CO)C1", "note": "(racemic) [AVI-4064]", "values": [{"measurement": "IC50", "setting": "[1]; [3]", "result": 100, "unit": "µM"}, {"measurement": "Ki", "setting": "[1]; [4]", "result": 93, "unit": "µM"}, {"measurement": "Ligand efficiency (binding enery per heavy atom)", "setting": "[1]; [5]", "result": 0.31}, {"measurement": "Number of isomers bound", "setting": "[2]; [6]", "result": 2}, {"measurement": "Isomers modeled", "setting": "[2]; [7]", "result": "RS,SR"}]}
{"smiles": "Nc1ncnc2c1ncn2[C@@H]1O[C@H](COP(=O)(O)OP(=O)(O)OC[C@H]2O[C@@H](O)[C@H](O)[C@@H]2O)[C@@H](O)[C@H]1O.[Na].[Na]", "note": "[ADP-ribose, reference compound]", "values": [{"measurement": "Hill slope", "setting": "[1]; HTRF dose-response fit, Mac1", "result": 1.1}, {"measurement": "X-ray crystal structure", "setting": "[2]; crystal structure with Mac1 determined (TRUE)", "result": "TRUE"}]}
{"smiles": "O=C(O)C1CCCN1S(=O)(=O)c1cccc2nsnc12", "note": "(centres unmarked) [AVI-2]", "values": [{"measurement": "inhibition at 200 µM", "setting": "[1]; [8]", "result": 23, "unit": "%"}, {"measurement": "inhibition at 200 µM", "setting": "[1]; [9]", "result": 23, "unit": "%"}, {"measurement": "Number of isomers bound", "setting": "[2]; [10]", "result": 1}]}
{"smiles": "CC1CC(C(=O)O)CCN1C(=O)c1ccc2c(c1)NC(=O)CO2", "note": "(centres unmarked) [AVI-303]", "values": [{"measurement": "inhibition at 200 µM", "setting": "[1]; [8]", "result": "< 10", "unit": "%"}, {"measurement": "inhibition at 200 µM", "setting": "[1]; [9]", "result": "< 10", "unit": "%"}, {"measurement": "Number of isomers bound", "setting": "[2]; [10]", "result": 1}]}
{"smiles": "OCC(Cc1ccccc1)Nc1ncnc2[nH]ccc12", "note": "(centres unmarked) [AVI-313]", "values": [{"measurement": "Ligand efficiency (binding enery per heavy atom)", "setting": "[1]; [11]", "result": 0.27}, {"measurement": "Ki", "setting": "[1]; [12]", "result": 120, "unit": "µM"}, {"measurement": "IC50", "setting": "[1]; read-out: HTRF IC50", "result": 130, "unit": "µM"}, {"measurement": "Number of isomers bound", "setting": "[2]; [10]", "result": 2}, {"measurement": "Isomers modeled", "setting": "[2]; [13]", "result": "S,R"}]}
{"smiles": "Cc1sc2ncnc(Sc3ccccc3C(=O)O)c2c1C", "note": "[AVI-317]", "values": [{"measurement": "IC50", "setting": "[1]; [14]", "result": "> 1000", "unit": "µM"}, {"measurement": "Number of isomers bound", "setting": "[2]; [10]", "result": 1}, {"measurement": "Isomers modeled", "setting": "[2]; [13]", "result": "achiral,achiral"}]}
{"smiles": "Cc1c(C)n(Cc2ccccc2)c2ncnc(N)c12", "note": "[AVI-321]", "values": [{"measurement": "inhibition at 200 µM", "setting": "[1]; [8]", "result": 19, "unit": "%"}, {"measurement": "inhibition at 200 µM", "setting": "[1]; [9]", "result": 19, "unit": "%"}, {"measurement": "Number of isomers bound", "setting": "[2]; [10]", "result": 1}, {"measurement": "Isomers modeled", "setting": "[2]; [13]", "result": "achiral"}]}
{"smiles": "CC(CNC(=O)c1ccc2c(c1)CCC(=O)N2)C(=O)O", "note": "(centres unmarked) [AVI-328]", "values": [{"measurement": "Ligand efficiency (binding enery per heavy atom)", "setting": "[1]; [11]", "result": 0.25}, {"measurement": "Ki", "setting": "[1]; [12]", "result": 210, "unit": "µM"}, {"measurement": "IC50", "setting": "[1]; read-out: HTRF IC50", "result": 220, "unit": "µM"}, {"measurement": "Number of isomers bound", "setting": "[2]; [10]", "result": 2}, {"measurement": "Isomers modeled", "setting": "[2]; [13]", "result": "R,S"}]}
{"smiles": "O=C1CCc2cc(C(=O)N3CC(C(=O)O)CCC34CCCC4)c(F)cc2N1", "note": "(centres unmarked) [AVI-338]", "values": [{"measurement": "IC50", "setting": "[1]; [14]", "result": 800, "unit": "µM"}, {"measurement": "Ligand efficiency (binding enery per heavy atom)", "setting": "[1]; [11]", "result": 0.16}, {"measurement": "Ki", "setting": "[1]; [12]", "result": 740, "unit": "µM"}, {"measurement": "Number of isomers bound", "setting": "[2]; [6]", "result": 1}]}
{"smiles": "Cc1cc2c(=O)n(CCN3C(=O)c4ccccc4S3(=O)=O)nnc2s1", "note": "[AVI-341]", "values": [{"measurement": "inhibition at 200 µM", "setting": "[1]; [8]", "result": 11, "unit": "%"}, {"measurement": "inhibition at 200 µM", "setting": "[1]; [9]", "result": 11, "unit": "%"}, {"measurement": "Number of isomers bound", "setting": "[2]; [10]", "result": 1}, {"measurement": "Isomers modeled", "setting": "[2]; [13]", "result": "achiral"}]}
{"smiles": "CNc1ccc(NS(=O)(=O)c2cc3cccc(C)c3s2)cn1", "note": "[AVI-345]", "values": [{"measurement": "inhibition at 200 µM", "setting": "[1]; [8]", "result": 18, "unit": "%"}, {"measurement": "inhibition at 200 µM", "setting": "[1]; [9]", "result": 18, "unit": "%"}, {"measurement": "Number of isomers bound", "setting": "[2]; [6]", "result": 1}, {"measurement": "Isomers modeled", "setting": "[2]; [7]", "result": "achiral"}]}
{"smiles": "CC1CCN(C(=O)c2ccc3c(c2)nc(CO)n3C)CC1C(=O)O", "note": "(centres unmarked) [AVI-348]", "values": [{"measurement": "inhibition at 200 µM", "setting": "[1]; [8]", "result": "< 10", "unit": "%"}, {"measurement": "inhibition at 200 µM", "setting": "[1]; [9]", "result": "< 10", "unit": "%"}, {"measurement": "Number of isomers bound", "setting": "[2]; [10]", "result": 1}]}
{"smiles": "CC(C)(O)[C@H]1CCCN1c1ncnc2[nH]ccc12", "note": "[AVI-607, 2-[(2R)-1-{7H-Pyrrolo[2,3-d]pyrimidin-4-yl}pyrrolidin-2-yl]propan-2-ol]", "values": [{"measurement": "Ligand efficiency", "setting": "[1]; binding energy per heavy atom", "result": 0.41}, {"measurement": "Ki", "setting": "[1]; [4]", "result": 4.7, "unit": "µM"}, {"measurement": "Ligand efficiency (binding enery per heavy atom)", "setting": "[1]; [5]", "result": 0.41}, {"measurement": "IC50", "setting": "[1]; read-out: HTRF IC50", "result": 5.1, "unit": "µM"}, {"measurement": "Number of isomers bound", "setting": "[2]; [10]", "result": 1}]}
{"smiles": "OC[C@@H]1C[C@H](F)CN1c1ncnc2[nH]ccc12", "note": "[AVI-609]", "values": [{"measurement": "inhibition at 200 µM", "setting": "[1]; Single dose, concentration 200 μM, read-out: SARS CoV-2 macrodomain HTRF assay: Average % competition", "result": 52, "unit": "%"}, {"measurement": "inhibition at 200 µM", "setting": "[1]; [9]", "result": 52, "unit": "%"}, {"measurement": "Number of isomers bound", "setting": "[2]; [10]", "result": 1}]}
{"smiles": "OC[C@@H]1C[C@H](O)CN1c1ncnc2[nH]ccc12", "note": "[AVI-610]", "values": [{"measurement": "IC50", "setting": "[1]; [3]", "result": 160, "unit": "µM"}, {"measurement": "Ki", "setting": "[1]; [4]", "result": 150, "unit": "µM"}, {"measurement": "Ligand efficiency (binding enery per heavy atom)", "setting": "[1]; [5]", "result": 0.31}, {"measurement": "Number of isomers bound", "setting": "[2]; [10]", "result": 1}]}
{"smiles": "NC(=O)C1(O)CCN(c2ncnc3[nH]ccc23)C1", "note": "(centres unmarked) [AVI-611]", "values": [{"measurement": "inhibition at 200 µM", "setting": "[1]; Single dose, concentration 200 μM, read-out: Average % competition", "result": 30, "unit": "%"}, {"measurement": "inhibition at 200 µM", "setting": "[1]; [9]", "result": 30, "unit": "%"}, {"measurement": "Number of isomers bound", "setting": "[2]; [10]", "result": 1}, {"measurement": "Isomers modeled", "setting": "[2]; [13]", "result": "S,S"}]}
